Experimental findings from ChEMBL document CHEMBL1201862, “PubChem BioAssay data set” (2004) are described below.

Holding throughout (test): NCI anticancer screen, dose series, 48 h
Assay [1] concerns UACC-257.
Assay [2] concerns OVCAR-5.
Assay [3] deals with ACHN.
Assay [4] relates to RXF 393.
Assay [5] relates to MDA-MB-231.
Assay [6] concerns HOP-62.
Assay [7] relates to MCF7.
Assay [8] deals with SF-295.
In assay [9] the test system is UO-31.
Assay [10] deals with CAKI-1.
Assay [11] concerns SN12C.
The subject of assay [12] is NCI/ADR-RES.
For assay [13], the system named is Hs-578T.
Assay [14] concerns COLO 205.
Assay [15] deals with A498.
Assay [16] deals with IGROV-1.
In assay [17] the test system is HCT-116.
The test system of assay [18] is OVCAR-3.
Assay [19] concerns RPMI-8226.

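Assay format: 96-well plates, 48-hour exposure. At the GI50, growth is halved.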 The source made the active and inactive calls. Cut-off read from the data, not from the text of the source: active = GI50 up to about 1.1 µM and inactive = higher.

Consider `CC1(CC(=O)OC(C#C[Si](C)(C)C)Cc2ccccc2)OCCO1` (centres undefined), for which the GI50 in assay [1], in assay [2], in assay [3], in [4], in assay [5] and in assay [6] was > 100 µM (inactive) throughout. Further, the GI50 in [7], in assay [8], in assay [9], in assay [10], in assay [11] and in assay [12] was > 100 µM (inactive) in each case. Moreover, the GI50 in [13], in [14], in [15], in assay [16] and in assay [17] was > 100 µM (inactive) throughout.

Regarding `COc1cc(C23OCC(Cc4cc5c(cc42)OCO5)C3CO)cc(OC)c1OC` (centres undefined), the GI50 in [1] was > 100 µM (inactive); in assay [2], 6.81 µM (inactive); in [3], 7.13 µM (inactive); in assay [4], 2.02 µM (inactive); in assay [5], 6.4 µM (inactive); in assay [6] it was 4.34 µM (inactive). The GI50 in assay [7] is 0.21 µM (active); in assay [8], 0.266 µM (active); in assay [18], 1.46 µM (inactive); in assay [9] it was 8.95 µM (inactive); in assay [10] it was 5.79 µM (inactive); in [12], 1.84 µM (inactive). Besides, the GI50 was 18.5 µM (inactive) in [13]; 2.55 µM (inactive) in [14]; 5.61 µM (inactive) in assay [15]; 2.44 µM (inactive) in assay [16]; 2.89 µM (inactive) in [17].

Turning to `COc1cc(C2SC(C)C(=O)N2c2ccc(-c3csc(NS(=O)(=O)c4ccc(Cl)c(OC)c4)n3)cc2)ccc1O` (centres undefined), the GI50 in assay [1] was 85.7 µM (inactive); in assay [2], > 100 µM (inactive); in [3], > 100 µM (inactive); in assay [4], > 100 µM (inactive); in assay [5], > 100 µM (inactive); in [6], > 100 µM (inactive). The GI50 was 38.4 µM (inactive) in assay [7]; > 100 µM (inactive) in assay [8]; 56.4 µM (inactive) in assay [18]; > 100 µM (inactive) in assay [9]; > 100 µM (inactive) in assay [10]; 20.6 µM (inactive) in assay [11]. For the same compound, the GI50 in assay [12] was > 100 µM (inactive); in assay [13] it was 54.1 µM (inactive); in assay [14], > 100 µM (inactive); in assay [15], > 100 µM (inactive); in assay [16], 44.9 µM (inactive); in assay [17], 31.8 µM (inactive).

Consider `O=C(NC(Cc1c[nH]c2ccccc12)C(=O)O)/C(=C/c1ccccc1O)NC(=O)c1ccccc1` (centres undefined), for which the GI50 is > 100 µM (inactive) in [1]; > 100 µM (inactive) in assay [2]; 19.2 µM (inactive) in assay [3]; 28.5 µM (inactive) in assay [4]; 21 µM (inactive) in assay [5]; 3.08 µM (inactive) in [7]. For the same compound, the GI50 is 19.8 µM (inactive) in [8]; 6.78 µM (inactive) in [9]; 18.8 µM (inactive) in [10]; 24.7 µM (inactive) in assay [11]; > 100 µM (inactive) in assay [19]; 13.9 µM (inactive) in [12]. Moreover, the GI50 in [13] is 24.6 µM (inactive); in assay [14], > 100 µM (inactive); in [15], > 100 µM (inactive); in assay [16] it was 19.2 µM (inactive); in [17], 42.6 µM (inactive).
